Reference: ChEMBL document CHEMBL6103672, “Discovery of HMPL-306 (Ranosidenib), a New Potent and Selective Dual Inhibitor of Mutant IDH1 and 2 in Clinical Development for Cancer Treatment” (ACS Med Chem Lett, 2025)

Columns and labels:
[1] = Metabolic stability in male SD rat liver microsomes assessed as parent compound remaining at 1 uM measured after 30 mins in presence of NADPH by LC-MS analysis; format: ADME, Microsome; conditions: Sprague-Dawley, read-out: Stability
[2] = Half life in male ICR mouse at 10 mg/kg, po measured after 8 hrs by LC/MS/MS analysis; format: ADME, organism-based; conditions: in vivo
[3] = Inhibition of IDH1 R132H mutant in human TF-1 cells incubated for 72 hrs by measuring 2-HG production by fluorescence based analysis; format: functional, cell-based; conditions: TF-1, 72 h
[4] = In vivo inhibition of 2-HG in BALB/c nude mouse xenografted with human U-87 MG cells harboring IDH2 R140Q mutant at 25 mg/kg, po measured after 40 hrs post dose; format: functional; conditions: Mus musculus, BALB/c, U-87 MG
[5] = Apparent permeability across apical to basolateral side in human Caco-2 cells at 10 uM incubated for 1 hrs by LC-MS/MS analysis
[6] = Cmax in male Sprague-Dawley rat at 5 mg/kg, po measured after 24 hrs by LC/MS/MS analysis; format: ADME, organism-based; conditions: in vivo
[7] = In vivo inhibition of 2-HG in BALB/c nude mouse xenografted with human HT-1080 cells harboring IDH1 R132C mutant at 25 mg/kg, po measured after 16 to 40 hrs post dose; format: functional; conditions: time 16-40 hrs
[8] = Cmax in male ICR mouse at 10 mg/kg, po measured after 8 hrs by LC/MS/MS analysis; format: ADME, organism-based; conditions: in vivo
[9] = molecular target: Isocitrate dehydrogenase [NADP], mitochondrial (Homo sapiens, UniProt P48735, R140Q); experiment: Inhibition of IDH2 R140Q mutant (unknown origin) using alpha-ketoglutarate as substrate preincubated with compound for 16 hrs followed by substrate addition and measured after 1 hr in presence of NADPH by fluorescence based analysis
[10] = Half life in male Sprague-Dawley rat at 1 mg/kg, iv measured after 24 hrs by LC/MS/MS analysis; format: ADME, organism-based; conditions: in vivo

Sequence of Isocitrate dehydrogenase [NADP], mitochondrial (P48735 40-452 R140Q limits assumed): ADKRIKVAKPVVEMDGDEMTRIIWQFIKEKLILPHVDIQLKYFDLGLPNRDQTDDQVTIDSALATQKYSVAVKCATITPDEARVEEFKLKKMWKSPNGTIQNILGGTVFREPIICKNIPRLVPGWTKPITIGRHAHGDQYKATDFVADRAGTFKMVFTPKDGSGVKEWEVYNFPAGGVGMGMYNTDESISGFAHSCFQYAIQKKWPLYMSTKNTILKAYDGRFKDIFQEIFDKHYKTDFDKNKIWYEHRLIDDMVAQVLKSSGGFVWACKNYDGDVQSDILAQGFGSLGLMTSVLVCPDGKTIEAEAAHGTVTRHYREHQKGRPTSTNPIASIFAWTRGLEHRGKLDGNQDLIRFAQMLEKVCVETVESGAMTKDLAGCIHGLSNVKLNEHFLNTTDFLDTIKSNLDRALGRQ

SMILES: C[C@@H](Nc1nc(N[C@H](C)C(F)(F)F)nc(C2=C(F)[C@H](O)C(F)(F)CC2)n1)C(F)(F)F [RANOSIDENIB]
- remaining at 0.5 h, 1 µM [1]: 99.5%
- half-life [2]: 20.2 h
- IC50 [3]: 31 nM
- inhibition in vivo at 25 mg/kg [4]: 93%
- Papp A→B at 1 h, 10 µM [5]: 53.3 ×10⁻⁶ cm/s
- Cmax [6]: 1490 ng/mL
- inhibition in vivo at 25 mg/kg [7]: ≥ 90%
- Cmax [8]: 2050 ng/mL
- IC50 [9]: 28 nM
- half-life [10]: 49.9 h
